According to ChEMBL document CHEMBL3132778, “Structureactivity relationships of tetrahydrocarbazole derivatives as antifungal lead compounds” (Medchemcomm, 2013):
Converted amounts (≈) assume the structure as drawn.

How the values were obtained:
Type in all cases: functional
Candida albicans = test: Antifungal activity against Candida albicans after 24 hrs by serial dilution method
Kluyveromyces marxianus = test: Antifungal activity against Candida kefyr after 24 hrs by serial dilution method
Trichophyton rubrum = test: Antifungal activity against Trichophyton rubrum by serial dilution method
Candida tropicalis = test: Antifungal activity against Candida tropicalis after 24 hrs by serial dilution method
Cryptococcus neoformans = test: Antifungal activity against Cryptococcus neoformans after 72 hrs by serial dilution method
Candida parapsilosis = test: Antifungal activity against Candida parapsilosis after 24 hrs by serial dilution method; conditions: Lodderomyces parapsilosis
Aspergillus fumigatus = test: Antifungal activity against Aspergillus fumigatus after 7 days by serial dilution method; conditions: 168 h
Nannizzia gypsea = test: Antifungal activity against Microsporum gypseum by serial dilution method

Row | Structure (SMILES) | MIC80 (Candida albicans) [µg/mL] | MIC80 (Kluyveromyces marxianus) [µg/mL] | MIC80 (Trichophyton rubrum) [µg/mL] | MIC80 (Candida tropicalis) [µg/mL] | MIC80 (Cryptococcus neoformans) [µg/mL] | MIC80 (Candida parapsilosis) [µg/mL] | MIC80 (Aspergillus fumigatus) [µg/mL] | MIC80 (Nannizzia gypsea) [µg/mL]
1 | Cc1ccc2c(c1)c1c(n2CCCNCc2ccccc2F)CCCC1 | > 64 | 16 (≈ 45.7 µM) | 64 (≈ 183 µM) | 32 (≈ 91.3 µM) | > 64 | > 64 | 16 (≈ 45.7 µM) | 
2 | Cc1ccc2c(c1)c1c(n2CC(O)CNc2ccccc2)CCCC1 (centres undefined) | > 64 |  |  |  | > 64 |  | > 64 | 1 (≈ 2.99 µM)
3 | Cc1ccc2c(c1)c1c(n2CC(O)CNCc2ccccc2)CCCC1 (centres undefined) | 16 (≈ 45.9 µM) | 64 (≈ 184 µM) | 16 (≈ 45.9 µM) | 64 (≈ 184 µM) | 4 (≈ 11.5 µM) | 64 (≈ 184 µM) | 64 (≈ 184 µM) | 16 (≈ 45.9 µM)
4 | Cc1ccc2c(c1)c1c(n2CC(O)CNCc2cccnc2)CCCC1 (centres undefined) | > 64 |  |  |  | 64 (≈ 183 µM) |  | 64 (≈ 183 µM) | 16 (≈ 45.8 µM)
5 | Cc1ccc2c(c1)c1c(n2CCCNC2CCCCC2)CCCC1 | > 64 |  |  |  | > 64 |  | > 64 | 4 (≈ 12.3 µM)
6 | Cc1ccc2c(c1)c1c(n2CCCNc2ccccc2)CCCC1 | 64 (≈ 201 µM) | 16 (≈ 50.2 µM) | 16 (≈ 50.2 µM) | 16 (≈ 50.2 µM) | 16 (≈ 50.2 µM) | 16 (≈ 50.2 µM) | 16 (≈ 50.2 µM) | 0.0625 (≈ 0.196 µM)
7 | Cc1ccc2c(c1)c1c(n2CCCNCc2ccccc2)CCCC1 | 16 (≈ 48.1 µM) | 32 (≈ 96.2 µM) | 4 (≈ 12 µM) | 32 (≈ 96.2 µM) | 1 (≈ 3.01 µM) | 16 (≈ 48.1 µM) | 32 (≈ 96.2 µM) | 0.0156 (≈ 0.0469 µM)
8 | Cc1ccc2c(c1)c1c(n2CCCNCc2cccnc2)CCCC1 | 64 (≈ 192 µM) | 16 (≈ 48 µM) | 4 (≈ 12 µM) | 16 (≈ 48 µM) | 64 (≈ 192 µM) | 64 (≈ 192 µM) | 64 (≈ 192 µM) | 0.0625 (≈ 0.187 µM)
9 | Cc1ccc2c(c1)c1c(n2CCCNCc2ccc(F)cc2)CCCC1 | 64 (≈ 183 µM) | 16 (≈ 45.7 µM) | 8 (≈ 22.8 µM) | 8 (≈ 22.8 µM) | 8 (≈ 22.8 µM) | 32 (≈ 91.3 µM) | 32 (≈ 91.3 µM) | 
10 | Cc1ccc2c(c1)c1c(n2CCCNCc2cccc(F)c2)CCCC1 | > 64 | > 64 | 64 (≈ 183 µM) | > 64 | 64 (≈ 183 µM) | 64 (≈ 183 µM) | > 64 | 
11 | Cc1ccc2c(c1)c1c(n2CCCNCc2ccc(Cl)cc2)CCCC1 | > 64 | 16 (≈ 43.6 µM) | > 64 | 64 (≈ 174 µM) | > 64 | 32 (≈ 87.2 µM) | 16 (≈ 43.6 µM) | 
12 | Cc1ccc2c(c1)c1c(n2CCCNCc2ccccc2Cl)CCCC1 | > 64 | > 64 | > 64 | > 64 | > 64 | > 64 | > 64 | 
13 | Cc1ccc2c(c1)c1c(n2CCCNCc2cccc(Cl)c2)CCCC1 | > 64 | 64 (≈ 174 µM) | > 64 | > 64 | 32 (≈ 87.2 µM) | > 64 | > 64 | 
14 | Cc1ccc(CNCCCn2c3c(c4cc(C)ccc42)CCCC3)cc1 | 32 (≈ 92.3 µM) | 16 (≈ 46.2 µM) | 8 (≈ 23.1 µM) | 16 (≈ 46.2 µM) | 8 (≈ 23.1 µM) | 32 (≈ 92.3 µM) | 32 (≈ 92.3 µM) | 
15 | COc1ccc(CNCCCn2c3c(c4cc(C)ccc42)CCCC3)cc1 | 32 (≈ 88.3 µM) | 16 (≈ 44.1 µM) | 8 (≈ 22.1 µM) | 8 (≈ 22.1 µM) | 16 (≈ 44.1 µM) | 16 (≈ 44.1 µM) | 16 (≈ 44.1 µM) | 
16 | Cc1ccc2c(c1)c1c(n2CCCNCc2ccc(Cl)cc2Cl)CCCC1 | > 64 | > 64 | > 64 | > 64 | > 64 | > 64 | > 64 | 

Row | Structure (SMILES) | MIC80 (Candida albicans) [µg/mL] | MIC80 (Kluyveromyces marxianus) [µg/mL] | MIC80 (Trichophyton rubrum) [µg/mL] | MIC80 (Candida tropicalis) [µg/mL] | MIC80 (Cryptococcus neoformans) [µg/mL] | MIC80 (Candida parapsilosis) [µg/mL] | MIC80 (Aspergillus fumigatus) [µg/mL] | MIC80 (Nannizzia gypsea) [µg/mL]
17 | CCOC(=O)c1ccc2c(c1)c1c(n2CCCNCc2ccccc2)CCCC1 | > 64 | > 64 |  | > 64 | > 64 | > 64 | > 64 | 
18 | OCc1ccc2c(c1)c1c(n2CCCNCc2ccccc2)CCCC1 | > 64 | > 64 |  | > 64 | > 64 | > 64 | > 64 | 
19 | O=C(OCc1ccc2c(c1)c1c(n2CCCNCc2ccccc2)CCCC1)c1ccccc1 | > 64 | > 64 |  | > 64 | > 64 | > 64 | > 64 | 
20 | c1ccc(CNCCCn2c3c(c4cc(CNc5ccccc5)ccc42)CCCC3)cc1 | 32 (≈ 75.5 µM) | > 64 |  | > 64 | > 64 | > 64 | > 64 | 
21 | O=C(Oc1ccccc1)c1ccc2c(c1)c1c(n2CCCNCc2ccccc2)CCCC1 | 64 (≈ 146 µM) | > 64 |  | > 64 | > 64 | > 64 | 64 (≈ 146 µM) | 
22 | O=C(OC1CCNCC1)c1ccc2c(c1)c1c(n2CCCNCc2ccccc2)CCCC1 | 32 (≈ 71.8 µM) | 64 (≈ 144 µM) |  | 8 (≈ 18 µM) | 32 (≈ 71.8 µM) | 32 (≈ 71.8 µM) | > 64 | 
23 | CN1CCC(OC(=O)c2ccc3c(c2)c2c(n3CCCNCc3ccccc3)CCCC2)CC1 | 32 (≈ 69.6 µM) | 32 (≈ 69.6 µM) |  | 32 (≈ 69.6 µM) | 16 (≈ 34.8 µM) | 64 (≈ 139 µM) | 32 (≈ 69.6 µM) | 
24 | O=C(Nc1ccccc1)c1ccc2c(c1)c1c(n2CCCNCc2ccccc2)CCCC1 | 32 (≈ 73.1 µM) | > 64 |  | > 64 | 64 (≈ 146 µM) | > 64 | > 64 | 
25 | O=C(Nc1ccc(Br)cc1)c1ccc2c(c1)c1c(n2CCCNCc2ccccc2)CCCC1 | 32 (≈ 62 µM) | > 64 |  | > 64 | 16 (≈ 31 µM) | > 64 | 64 (≈ 124 µM) | 
26 | O=C(NCc1ccccc1)c1ccc2c(c1)c1c(n2CCCNCc2ccccc2)CCCC1 | > 64 | > 64 |  | > 64 | 64 (≈ 142 µM) | > 64 | > 64 | 
27 | O=C(OC1CCCCC1)c1ccc2c(c1)c1c(n2CCCNCc2ccccc2)CCCC1 | 64 (≈ 144 µM) | > 64 |  | > 64 | > 64 | > 64 | > 64 | 
28 | O=C(c1ccc2c(c1)c1c(n2CCCNCc2ccccc2)CCCC1)c1ccccn1 | 64 (≈ 151 µM) | > 64 |  | > 64 | 64 (≈ 151 µM) | > 64 | > 64 | 
29 | Cc1ccc(C(=O)c2ccc3c(c2)c2c(n3CCCNCc3ccccc3)CCCC2)nc1 | 64 (≈ 146 µM) | > 64 |  | > 64 | > 64 | > 64 | > 64 | 
30 | O=C(c1ccc2c(c1)c1c(n2CCCNCc2ccccc2)CCCC1)c1nccs1 | 32 (≈ 74.5 µM) | > 64 |  | > 64 | > 64 | > 64 | > 64 | 
31 | Cc1c(C(=O)c2ccccn2)oc2cccc(OCCCNCc3cccnc3)c12 | 4 (≈ 9.96 µM) | 4 (≈ 9.96 µM) | 64 (≈ 159 µM) | 8 (≈ 19.9 µM) | > 64 | 4 (≈ 9.96 µM) | > 64 | > 64
